This is an account of results in patent US6930185B2, “Melanin-concentrating hormone antagonist” (Takeda Chemical Industries, Ltd., priority 2000, dated 2005).

The first data set concerns the target SLC-1 (UniProt Q99705). Briefly: Determination of antagonist activity using GTPγS binding assay. In kind it is biochemical, human/rat. The settings on record: inhibition of MCH-stimulated [35S]-Guanosine 5′-(γ-thio) triphosphate binding, SLC-1 expressing CHO cell membrane fractions. On the procedure: Determination of Antagonist Activity Using GTPYS Binding Assay of Test Compound
Membrane fraction was prepared by the following method, using the human SLC-1 expressing CHO cell clone 57 obtained in Reference Example 1-10, and the rat SLC-1 expressing CHO cell clone 44 obtained in Reference Example 1-4.
The human and rat SLC-1 expressing CHO cells (1×10^8) were scraped in buffer saline phosphate (pH 7.4) to which 5 mM EDTA (ethylenediaminetetraacetic acid) had been added, and centrifuged. 10 ml of homogenized buffer (10 mM NaHCO3, 5 mM EDTA, pH 7.5) was added to the cell pellets, and they were homogenized using a Polytron homogenizer. […]
After this reaction mixture was allowed to react for 1 hour under stirring, it was filtered under vacuum using a glass filter (GF-C), then the filter was washed 3 times with 300 μl of washing solution (50 mM Tris-HCl buffer solution pH 7.5). […] of liquid scintillator was added to the glass filter, and residual radioactivity was determined using a liquid scintillation counter.
The IC50 value of the compound was calculated from the binding inhibition rate (%), based on the definition that the binding inhibition rate (%)=(radioactivity when compound and MCH were added−radioactivity when DMSO solution was added)/(radioactivity when MCH was added−radioactivity when DMSO solution was added)×100.
On the technique in general: GTPγS resists hydrolysis and so accumulates on activated G proteins.
`CN(C)Cc1ccc2cc(NC(=O)c3ccc(-c4ccc(Cl)cc4)cc3)ccc2c1` [Example 1, 4′-Chloro-N-[6-[(N,N-dimethylamino)methyl]-2-naphthyl][1,1′-biphenyl]-4-carboxamide]: the half-maximal inhibitory concentration (IC50) was determined as 5 nM. In other words, the single-digit nanomolar range.

System in a further data set: not given
Assay: not given
Conditions: not given
Consider `CN(C)Cc1ccc2cc(NC(=O)c3ccc(-c4ccc(Cl)cc4)cc3)ccc2c1` [Example 1, 4′-Chloro-N-[6-[(N,N-dimethylamino)methyl]-2-naphthyl][1,1′-biphenyl]-4-carboxamide], for which the melting point lay in the range of 230 to 231 °C. On the same count and under the same terms, under `O=C(Nc1ccc2nc(CN3CCN=C3c3ccccc3)ccc2c1)c1ccc(-c2ccccc2)cc1` [Example 94, N-[2-[(2-Phenyl-4,5-dihydro-1H-imidazol-1-yl)methyl]-6-quinolinyl][1,1′-biphenyl]-4-carboxamide] stands 212 to 216 °C (dec.). The same measure, in the same setting: as for `O=C(Nc1ccc2cc(CN3CCCC3)ccc2c1)N1CCC(c2ccc(F)cc2)CC1` [Example 99, 4-(4-Fluorophenyl)-N-[6-(1-pyrrolidinylmethyl)-2-naphthyl]-1-piperidinecarboxamide], the figure is 209 to 211 °C. Same read-out and setting: under `COc1ccc(C2CCN(C(=O)Nc3ccc4cc(CN5CCCC5)ccc4c3)CC2)cc1` [Example 100, 4-(4-Methoxyphenyl)-N-[6-(1-pyrrolidinylmethyl)-2-naphthyl]-1-piperidinecarboxamide] stands 194 to 196 °C; under `O=C(Nc1ccc2cc(CN3CCCC3)ccc2c1)N1CCC(c2ccccc2)CC1` [Example 102, 4-Phenyl-N-[6-(1-pyrrolidinylmethyl)-2-naphthyl]-1-piperidinecarboxamide], 193 to 195 °C. Turning to `Cc1ccc(C2CCN(C(=O)Nc3ccc4cc(CN5CCCC5)ccc4c3)CC2)cc1` [Example 103, 4-Methylphenyl-N-[6-(1-pyrrolidinylmethyl)-2-naphthyl]-1-piperidinecarboxamide], the melting point was 210 to 212 °C. Still for that read-out and setting: as for `O=C(Nc1ccc2nc(CN3CCCCC3c3cccnc3)ccc2c1)c1ccc(-c2ccc(Cl)cc2)cc1` (stereo not drawn) [Example 116, 4′-Chloro-N-[2-[[2-(3-pyridinyl)-1-piperidinyl]-methyl]-6-quinolinyl][1,1′-biphenyl]-4-carboxamide], the figure is 124 to 126 °C (dec.); as for `COC[C@@H]1CCCN1Cc1ccc2cc(NC(=O)c3ccc(-c4ccc(Cl)cc4)cc3)ccc2n1` [Example 117, 4′-Chloro-N-[2-[[(2S)-2-(methoxymethyl)pyrrolidinyl]-methyl]-6-quinolinyl][1,1′-biphenyl]-4-carboxamide], 172 to 174 °C. Same read-out and setting: as for `CC(C)(C)OC(=O)[C@@H]1CCCN1Cc1ccc2cc(NC(=O)c3ccc(-c4ccc(Cl)cc4)cc3)ccc2n1` [Example 118, Tert-butyl (2S)-1-[[6-[[(4′-chloro[1,1′-biphenyl]-4-yl)carbonyl]amino]-2-quinolinyl]methyl]-2-pyrrolidinecarboxylate], the figure is 163 to 166 °C; as for `COc1ccc(C2CCN(C(=O)Nc3ccc4cc(CN5C(C)(C)CCCC5(C)C)ccc4c3)CC2)cc1` [Example 119, 4-(4-Methoxyphenyl)-N-[6-[(2,2,6,6-tetramethyl-1-piperidinyl)methyl]-2-naphthyl]-1-piperidinecarboxamide], 164 to 166 °C.

The compound `COc1ccc(-c2ccc(C(=O)Nc3ccc4cc(CN5C(C)(C)CCCC5(C)C)ccc4c3)cc2)cc1` [Example 120, 4′-Methoxy-N-[6-[(2,2,6,6-tetramethyl-1-piperidinyl)methyl]-2-naphthyl][1,1′-biphenyl]-4-carboxamide] displayed a melting point of 212 to 214 °C. `CC1(C)CCCC(C)(C)N1Cc1ccc2cc(NC(=O)c3ccc(-c4ccc(F)cc4)cc3)ccc2c1` [Example 121, 4′-Fluoro-N-[6-[(2,2,6,6-tetramethyl-1-piperidinyl)methyl]-2-naphthyl][1,1′-biphenyl]-4-carboxamide] gave a melting point of 238 to 241 °C.

As for `Cc1ccc(-c2ccc(C(=O)Nc3ccc4cc(CN5C(C)(C)CCCC5(C)C)ccc4c3)cc2)cc1` [Example 122, 4′-Methyl-N-[6-[(2,2,6,6-tetramethyl-1-piperidinyl)methyl]-2-naphthyl][1,1′-biphenyl]-4-carboxamide], the melting point was 235 to 237 °C.

For the compound `CC1(C)CCCC(C)(C)N1Cc1ccc2cc(NC(=O)c3ccc(-c4ccc(Cl)cc4)cc3)ccc2c1` [Example 123, 4′-Chloro-N-[6-[(2,2,6,6-tetramethyl-1-piperidinyl)methyl]-2-naphthyl][1,1′-biphenyl]-4-carboxamide], the melting point was in the range of 244 to 246 °C. The same measure, in the same setting: under `CC(C)N(Cc1ccc2cc(NC(=O)c3ccc(-c4ccc(Cl)cc4)cc3)ccc2c1)C(C)C` [Example 124, 4′-Chloro-N-[6-[(diisopropylamino)methyl]-2-naphthyl][1,1′-biphenyl]-4-carboxamide] stands 246 to 250 °C. Turning to `CC(C)N(Cc1ccc2cc(NC(=O)c3ccc(-c4ccccc4)cc3)ccc2n1)C(C)C` [Example 133, N-[2-[(Diisopropylamino)methyl]-6-quinolinyl][1-1′-biphenyl]-4-carboxamide], the melting point was in the range of 208 to 209 °C. The compound `COc1ccc(-c2ccc(C(=O)Nc3ccc4nc(CN(C(C)C)C(C)C)ccc4c3)cc2)cc1` [Example 134, N-[2-[(Diisopropylamino)methyl]-6-quinolinyl]-4′-methoxy[1-1′-biphenyl]-4-carboxamide] registered a melting point of 223 to 225 °C. Still for that read-out and setting: as for `CC(C)N(Cc1ccc2cc(NC(=O)c3ccc(-c4ccc(F)cc4)cc3)ccc2n1)C(C)C` [Example 135, N-[2-[(Diisopropylamino)methyl]-6-quinolinyl]-4′-fluoro[1-1′-biphenyl]-4-carboxamide], the figure is 207 to 209 °C; as for `Cc1ccc(-c2ccc(C(=O)Nc3ccc4nc(CN(C(C)C)C(C)C)ccc4c3)cc2)cc1` [Example 136, N-[2-[(Diisopropylamino)methyl]-6-quinolinyl]-4′-methyl [1-1′-biphenyl]-4-carboxamide], 225 to 227 °C. Compound `Cc1ccc(-c2ccc(C(=O)Nc3ccc4nc(CN(C(C)C)C(C)C)ccc4c3)cn2)cc1` [Example 137, N-[2-[(Diisopropylamino)methyl]-6-quinolinyl]-6-(4-methylphenyl)nicotinamide] gave a melting point of 211 to 213 °C. On the same count and under the same terms, as for `CC(C)N(Cc1ccc2cc(NC(=O)c3ccc(-c4ccc(Cl)cc4)nc3)ccc2n1)C(C)C` [Example 138, 6-(4-Chlorophenyl)-N-[2-[(diisopropylamino)methyl]-6-quinolinyl]nicotinamide], the figure is 201 to 203 °C. Still for that read-out and setting: as for `Cc1ccc(C2CCN(C(=O)Nc3ccc4nc(CN(C(C)C)C(C)C)ccc4c3)CC2)cc1` [Example 139, N-[2-[(Diisopropylamino)methyl]-6-quinolinyl]-4-(4-methylphenyl)-1-piperidinecarboxamide], the figure is 184 to 186 °C. `CC(C)N(Cc1ccc2cc(NC(=O)N3CCC(c4ccc(Cl)cc4)CC3)ccc2n1)C(C)C` [Example 140, 4-(4-Chlorophenyl)-N-[2-[(diisopropylamino)methyl]-6-quinolinyl]-1-piperidinecarboxamide] had a melting point of 201 to 203 °C.

One may read the IC50 as the midpoint of a concentration-inhibition curve. As usually defined, the melting point is the temperature, or range, at which the solid turns liquid.
